# Like-named read-outs stand apart in the source and are kept apart here.
# Experiments:
# DNA-PK = biological target: T1, DNA-PK (Homo sapiens, UniProt P78527); test: DNA-PK Assay for Biochemical Enzymatic Inhibition (ADP Glo Kinase assay); details: DNA-PK enzyme
# T1 construct: purchased Invitrogen PR9107A
# Method in brief: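 Human DNA-PK (25 ng) preincubated 15 min with compounds (ten three-fold dilutions) in HEPES pH 7.5, MgCl2, KCl, calf thymus DNA buffer, then substrate 434.4 μM and ATP 64.4 μM (final) for 60 min at room temperature. ADP-Glo luminescence; percent inhibition fitted by four-parameter regression for IC50.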
# [1] = biological target: T2, DNA-PK phosphorylation at Serine 2056 (Homo sapiens, UniProt P78527); test: Cellular Assay for Inhibition of DNA-PK Phosphorylation at Serine 2056 in FaDu cells (sandwich ELISA, neocarzinostatin); type: cell-based; details: pSer2056 DNA-PK
# T2 construct: FaDu cells were purchased from ATCC; host or cells: FaDu
# Method in brief: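 pSer2056 and total DNA-PK were measured by sandwich ELISA in BCA-normalised FaDu lysates. Cells had 1 h compound exposure (0.3% DMSO), then 2 h with 1 μg/mL final neocarzinostatin. IC50 was fitted (variable slope) to % inhibition scaled against NCS-stimulated and DMSO-only controls.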
# [2] = Microsomal Stability Assay, mouse liver microsomes; type: in vitro ADME; details: for microsomal CLint at 0.1 uM: male, CD-1, pH 7.4
# Method: (§1) Samples were then mixed and centrifuged. Supernatants were used for HPLC-MS/MS analysis. […] Peak areas corresponding to the test compound were recorded.
# [3] = Microsomal Stability Assay, human liver microsomes; type: in vitro ADME; details: for microsomal CLint at 0.1 uM: both sexes, pH 7.4
# Method: as §1
# [4] = system: pDNA-PK induction in HCT116 tumour spheroids; test: Multicellular tumour spheroid + radiation, pDNA-PK (ser2056) inhibition, immunohistochemical endpoint, HCT116; type: cell-based; details: Homo sapiens, HCT-116, 20 Gy, 2 hours following radiation, 20% O2
# Method in brief: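 HCT116 spheroids (~0.5 mm) in MEM/10% FBS, 20% O2, 37° C., pre-incubated 1 h with compound (10 or 5 μM down to 3.5 nM), irradiated 20 Gy, then 2 h further with compound. Cryosections immunostained for pDNA-PK ser2056; EC50 is concentration halving radiation-induced pDNA-PK.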
# [5] = Hepatocyte Stability Assay, mouse hepatocytes; type: in vitro ADME
# Method: (§2) Cryopreserved mouse hepatocytes were obtained from a pool of 10 or more male CD-1 mice. Cryopreserved human hepatocytes were obtained from a pool of 10 or more donors of mixed gender. Final hepatocyte density was 0.7 million viable cells per mL and test compound concentration was 1 uM with a maximum of 0.01% DMSO. Cryopreserved hepatocytes were thawed, washed, and resuspended in Krebs-Heinslet buffer (pH 7.3). The reaction was initiated by adding the test compound into cell suspension and incubated for 0, […], 1, 1.5, and 2 h, respectively, at 37° C./5% C02. The reaction was stopped by adding acetonitrile into the incubation mixture. Samples were then mixed, transferred completely to another 96-well plate, and centrifuged. Supernatants were used for HPLC-MS/MS analysis. […] Peak areas corresponding to the test compound were recorded.
# [6] = Hepatocyte Stability Assay, human hepatocytes; type: in vitro ADME
# Method: as §2
# [7] = system: pH2AX induction in HCT116 ATM-/- multicellular tumour spheroids; test: Prodrug Radiation Sensitization in Multicellular Tumour Spheroids, inhibition of pH2AX induction following radiation; type: cell-based; details: Homo sapiens, HCT-116, 20 Gy
# Method in brief: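 Endpoint: pH2AX (ser 139) or pDNA-PK (ser 2056) in cryosections fixed 1 or 2 h after 20 Gy, comparing oxygenated outer with hypoxic inner layers. Spheroids of ~0.5 mm (HCT116, FaDu; ATM-deficient cells used) held at 20% or 5% O2, 37 °C, stirred. Prodrug range 3.5 nM–10 μM.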
# FaDu cell line = test: Prodrug Activation in Hypoxic Stirred Tumour Cell Suspensions; details: 10 μM, 4 hours
# [8] = neocarzinostatin 1 μg/mL, Table 1
# [9] = mouse liver microsomes 0.1 mg/mL, 0.1 uM compound
# [10] = human liver microsomes 0.1 mg/mL, 0.1 uM compound
# [11] = Example 9 Study 2, read-out: Spheroid Cell line: HCT116 Immunohistochemical endpoint pDNA-PK inhibition EC50
# [12] = Spheroid, Cell Line: HCT115 (so in the source), Example 7, read-out: EC50, Immunohistochemical endpoint, pDNA-PK inhibition
# [13] = mouse liver microsomes, Example 11
# [14] = human liver microsomes, Example 11
Structure (SMILES),IC50 (DNA-PK; Table 1),"IC50 [1, 8]","microsomal CLint at 0.1 uM [2, 9]",Microsomal Stability Mouse % rem. 60 min ([2]; mouse liver microsomes),"microsomal CLint at 0.1 uM [3, 10]",Microsomal Stability Human % rem. 60 min ([3]; human liver microsomes),"EC50 [4, 11]","EC50 [4, 12]",IC50 (DNA-PK; Table 2),IC50 ([1]; Table 2),"Microsomal Stability Mouse % rem. 60 min [2, 13]","Microsomal Stability Human % rem. 60 min [3, 14]",other results
"CN(C)C(=O)COc1ccc(N[C@H]2CC[C@@H](Oc3nc(N4CCOCC4)cc4ncccc34)CC2)nc1 [Compound 55, N,N-dimethyl-2-((6-(((1s,4s)-4-((7-morpholino-1,6-naphthyridin-5-yl)oxy)cyclohexyl)amino)pyridin-3-yl)oxy)acetamide]",< 0.0005 µM,0.1 to 1 µM,> 116 µL/min/mg,E (% remaining = 0-25%),> 116 µL/min/mg,F (% remaining = 25-50%),,,,,,,
"CN(C)C(=O)COc1ccnc(N[C@H]2CC[C@@H](Oc3nc(N4CCOCC4)cc4ncccc34)CC2)n1 [Compound 56, N,N-dimethyl-2-((2-(((1s,4s)-4-((7-morpholino-1,6-naphthyridin-5-yl)oxy)cyclohexyl)amino)pyrimidin-4-yl)oxy)acetamide]",< 0.0005 µM,0.1 to 1 µM,> 116 µL/min/mg,E (% remaining = 0-25%),> 116 µL/min/mg,E (% remaining = 0-25%),0.5 to 1 µM,0.5 to 1 µM,,,,,
"O=S(=O)(Nc1cnc2cc(N3CCOCC3)nc(O[C@H]3CC[C@@H](Nc4ncccn4)CC3)c2c1)C1CC1 [Compound 186, N-(7-morpholino-5-(((1s,4s)-4-(pyrimidin-2-ylamino)cyclohexyl)oxy)-1,6-naphthyridin-3-yl)cyclopropanesulfonamide]",0.0005 to 0.001 µM,< 0.1 µM,< 116 µL/min/mg,G (% remaining = 50-75%),> 116 µL/min/mg,F (% remaining = 25-50%),1 to 10 µM,1 to 10 µM,,,,,
"Cn1c(CN(c2cnc3cc(N4CCOCC4)nc(OC4CCC(NC(=O)c5ncccn5)CC4)c3c2)S(C)(=O)=O)cnc1[N+](=O)[O-] (stereo not shown) [LFA016, N-[4-[[3-[(3-Methyl-2-nitro-imidazol-4-yl)methyl-methylsulfonyl-amino]-7-morpholino-1,6-naphthyridin-5-yl]oxy]cyclohexyl]pyrimidine-2-carboxamide]",,,,,,,,,0.01 to 0.15 µM,10 to 30 µM,G (% remaining = 50-75%),F (% remaining = 25-50%),"EC50 ([7]; 5% O2, inner layers, read-out: Prodrug 5% O2 Inner layers EC50): 1 to 10 µM; EC50 ([7]; 5% O2, outer layers, read-out: Prodrug 5% O2 Outer layers EC50): 1 to 10 µM; EC50 ([7]; 20% O2, outer layers, read-out: Prodrug 20% O2 Outer layers EC50): 10 to 100 µM; microsomal CLint at 0.1 uM [2, 13]: < 116 µL/min/mg; microsomal CLint at 0.1 uM [3, 14]: < 116 µL/min/mg; Fraction of prodrug converted to active form, Hypoxic 0.2% O2 (FaDu cell line; 0.2% O2): C (C is 0.02 to 0.05); Fraction of prodrug converted to active form, Oxic 5% O2 (FaDu cell line; 5% O2): D (D is 0 to 0.02)"
"CN(C)C(=O)COc1cnc(N[C@H]2CC[C@@H](Oc3nc(N4CCOCC4)cc4ncc(N)cc34)CC2)nc1 [LFA111, 2-[2-[[4-[(3-Amino-7-morpholino-1,6-naphthyridin-5-yl)oxy]cyclohexyl]amino]pyrimidin-5-yl]oxy-N,N-dimethyl-acetamide]",,,,,,,,,0.0005 to 0.001 µM,0.1 to 1 µM,F (% remaining = 25-50%),G (% remaining = 50-75%),"microsomal CLint at 0.1 uM [2, 13]: < 116 µL/min/mg; microsomal CLint at 0.1 uM [3, 14]: < 116 µL/min/mg"
"CN(C)C(=O)COc1cnc(N[C@H]2CC[C@@H](Oc3nc(N4CCOCC4)cc4ncc(O)cc34)CC2)nc1 [LFA113, 2-[2-[[4-[(3-Hydroxy-7-morpholino-1,6-naphthyridin-5-yl)oxy]cyclohexyl]amino]pyrimidin-5-yl]oxy-N,N-dimethyl-acetamide]",,,,,,,,,< 0.0005 µM,< 0.1 µM,F (% remaining = 25-50%),H (% remaining = 75-100%),"microsomal CLint at 0.1 uM [2, 13]: < 116 µL/min/mg; microsomal CLint at 0.1 uM [3, 14]: < 116 µL/min/mg"

# More lines, main results first:
IC50 (DNA-PK; Table 1),"IC50 [1, 8]","microsomal CLint at 0.1 uM [2, 9]",Microsomal Stability Mouse % rem. 60 min ([2]; mouse liver microsomes),"microsomal CLint at 0.1 uM [3, 10]",Microsomal Stability Human % rem. 60 min ([3]; human liver microsomes),"EC50 [4, 11]","EC50 [4, 12]",IC50 (DNA-PK; Table 2),IC50 ([1]; Table 2),"Microsomal Stability Mouse % rem. 60 min [2, 13]","Microsomal Stability Human % rem. 60 min [3, 14]",Structure (SMILES),other results
< 0.0005 µM,< 0.1 µM,< 116 µL/min/mg,G (% remaining = 50-75%),> 116 µL/min/mg,E (% remaining = 0-25%),0.01 to 0.5 µM,0.5 to 1 µM,,,,,CS(=O)(=O)NCCOc1cnc(N[C@H]2CC[C@@H](Oc3nc(N4CCOCC4)cc4ncccc34)CC2)nc1 [Compound 67],
< 0.0005 µM,< 0.1 µM,> 116 µL/min/mg,F (% remaining = 25-50%),> 116 µL/min/mg,F (% remaining = 25-50%),1 to 10 µM,1 to 10 µM,,,,,"c1cnc2cc(N3CCOCC3)nc(O[C@H]3CC[C@@H](Nc4ncc(OCCN5CCNCC5)cn4)CC3)c2c1 [Compound 70, N-((1s,4s)-4-((7-Morpholino-1,6-naphthyridin-5-yl)oxy)cyclohexyl)-5-(2-(piperazin-1-yl)ethoxy)pyrimidin-2-amine]",
< 0.0005 µM,0.1 to 1 µM,,,,,1 to 10 µM,,,,,,"O=C(COc1cnc(N[C@H]2CC[C@@H](Oc3nc(N4CCOCC4)cc4ncccc34)CC2)nc1)N1CC(F)C1 [Compound 76, 1-(3-Fluoroazetidin-1-yl)-2-((2-(((1s,4s)-4-((7-morpholino-1,6-naphthyridin-5-yl)oxy)cyclohexyl)amino)pyrimidin-5-yl)oxy)ethan-1-one]","hepatocyte CLint at 1 uM ([5]; male, CD-1, cryopreserved hepatocytes, pH 7.3, mouse hepatocytes 0.7 million cells per mL, 1 uM compound): > 8.2 µL/min/1e6 cells; Hepatocyte Stability Mouse % rem. 120 min ([5]; mouse hepatocytes, 120 min): F (% remaining = 25-50%); hepatocyte CLint at 1 uM ([6]; both sexes, cryopreserved hepatocytes, pH 7.3, human hepatocytes 0.7 million cells per mL, 1 uM compound): < 8.2 µL/min/1e6 cells; Hepatocyte Stability Human % rem. 120 min ([6]; human hepatocytes, 120 min): G (% remaining = 50-75%)"
0.0005 to 0.001 µM,0.1 to 1 µM,< 116 µL/min/mg,H (% remaining = 75-100%),< 116 µL/min/mg,H (% remaining = 75-100%),1 to 10 µM,1 to 10 µM,,,,,CN(C)C(=O)COc1cnc(C(=O)N[C@H]2CC[C@@H](Oc3nc(N4CCOCC4)cc4ncccc34)CC2)nc1 [Compound 125],
,,,,,,,,< 0.0005 µM,0.1 to 1 µM,H (% remaining = 75-100%),H (% remaining = 75-100%),"CN(C)C(=O)COc1cnc(N[C@H]2CC[C@@H](Oc3nc(N4CCOCC4)cc4ncc(NS(C)(=O)=O)cc34)CC2)nc1 [LFA012, 2-[2-[[4-[[3-(Methanesulfonamido)-7-morpholino-1,6-naphthyridin-5-yl]oxy]cyclohexyl]amino]pyrimidin-5-yl]oxy-N,N′-dimethyl-acetamide]","Microsomal Stability Mouse Clint [2, 13]: A (Clint < 116 uL/min/mg); Microsomal Stability Human Clint [3, 14]: A (Clint < 116 uL/min/mg)"
